Assay results from patent publication US20050233974A1, “Treating infectious diseases using ice inhibitors” (priority 2003, published 2005).

Columns and labels:
[1] = test system: P. aeruginosa strain 19660; assay: corneal infection model, P. aeruginosa ATCC strain 19660; format: in vivo, B6 mice
Experimental: Eight week old female B6 mice (The Jackson Laboratory, Bar Harbor, Me.) were used in these experiments. The left cornea of each anesthetized mouse was scarified with three parallel 1 mm incisions using a sterile 25⅝ gauge needle under a stereoscopic microscope. […] Eyes were examined macroscopically at 1 day post-infection (p.i.) and at times described below to ensure that all mice were similarly infected and to monitor the course of disease. All animals were treated humanely and in full compliance with the Association for Research in Vision and Ophthalmology resolution on usage and treatment of animals in research.
Worth, Tex.) begun at 18 h p.i. and then 3×/day for 7 days. Initiation of ICE inhibitor therapy at 18 h p.i. was chosen to test experimentally in order to provide more clinically relevant data. In addition, by this time point, it would be expected that a patient would notice ocular symptoms such as haziness, discomfort and pain and would seek care.
Mice (n=5/group) were color coded and examined in masked fashion by two independent observers at 1, 3, 5 and 7 days p.i. to grade the severity of disease after P. aeruginosa infection.
The samples were subjected to three freeze-thaw cycles and then centrifuged at 14,000 rpm for 20 min. […] The change in absorbance at 460 nm was continuously monitored for 5 min. The results were expressed as units of MPO/cornea.
For this, individual corneas were homogenized in sterile PBS and aliquots (100 μl) of serial dilutions were plated onto Pseudomonas isolation agar (Difco, Detroit, Mich.) plates in triplicate. Plates were incubated for 24 h at 37° C. Results were expressed as log10 number of CFU/cornea±SEM.
Corneas (n=5/group) were removed at 7 days p.i. and immediately stored at −70° C. Before analysis, individual corneas were homogenized in 0.1% Tween 20-PBS with a glass Kontes pestle (Fisher, Itasca, Ill.) centrifuged at 5000×g for 10 minutes at 4° C., and supernatants were used to quantify IL-1β and MIP-2 proteins. Results are reported as pg/ml.
The change in clinical score with time within a group was tested by the Friedman two-way analysis of variance by ranks. The difference in clinical score at each experimental time point between the ICE inhibitor and placebo treated B6 mice was tested by the Mann-Whitney U test. An unpaired, two-tailed Student's t-test was used to determine statistical significance for data from MPO assay, bacterial counts and ELISA analyses between treated and control groups. Mean differences were considered significant at P≦0.05. Experiments were repeated at least twice to ensure reproducibility and representative data from a single experiment are shown.

[2] = test system: Pseudomonas isolates resistant to ciprofloxacin; conditions: 22 ciprofloxacin-resistant isolates of 141 culture-proven cases; cited from earlier work

In the case of O=C(O)c1cn(C2CC2)c2cc(N3CCNCC3)c(F)cc2c1=O [ciprofloxacin], the “histopathological examination of eyes” value ([1]; 7 days p.i.) is reported as “heavier inflammatory cells infiltrate in the anterior chamber and adherent to the corneal endothelium”, the “viable bacteria in cornea (plate counts)” value ([1]; 7 days p.i., ICE inhibitor vs. placebo (P=0.02)) is reported as “No bacterial colonies were isolated” and the “protein levels of MIP-2 in cornea (ELISA)” value ([1]; 7 days p.i., ICE inhibitor vs. vehicle (P=0.012), with ciprofloxacin vs. vehicle and ciprofloxacin (P=0.04)) is reported as “markedly reduced”. For the same compound, the “protein levels of IL-1β in cornea (ELISA)” value ([1]; 7 days p.i., ICE inhibitor vs. vehicle (P=0.023), with ciprofloxacin vs. vehicle and ciprofloxacin (P=0.036)) was “markedly reduced”, the “slit lamp microscopy of cornea” value ([1]; day 7 p.i.) was “heavier cellular infiltration in the cornea as well as in the anterior chamber” and the mean MIC [2] was 43 µg/mL.
